Laboratory results reported in US12390402B2, “High-content and sustained-release retinoid capsule, and composition for reducing wrinkles, containing same” (LG HOUSEHOLD & HEALTH CARE LTD., priority 2018, dated 2025).

Experiment: Solubility of retinoic acid in the liquid lipid
Format: physicochemical
Experimental: FIG. 2 is the result of the solubility in oil according to the binding of an amine compound and retinoid.
As shown in the Table 2, the maximum concentration of the retinoic acid soluble in the liquid lipid was 0.1% of the weight of the liquid lipid, and when added more the above, the retinoic acid was not dissolved, making it impossible to synthesize capsules (Comparative examples 1, 2, 3). On the other hand, it was determined that the solubility of retinoic acid was increased over 10% of the weight of the liquid lipid, when the amine compound at the same mole concentration as retinoic acid was added during dissolving retinoic acid in the liquid lipid (See Table 2). Through this, the dry weight of the retinoid in the final capsule after washing could be increased 100 times from conventional 0.03% to 3%.

CC1=C(/C=C/C(C)=C/C=C/C(C)=C/C(=O)O)C(C)(C)CCC1 [retinoic acid]
solubility of retinoic acid in the liquid lipid (amine compound added at the same mole concentration as retinoic acid): over 10 % of the weight of the liquid lipid
maximum concentration of the retinoic acid soluble in the liquid lipid (without amine compound, caprylic/capryl triglyceride): 0.1 % of the weight of the liquid lipid
